Results from patent US20230027026A1, “FUSED PYRIMIDINE COMPOUNDS, COMPOSITIONS AND MEDICINAL APPLICATIONS THEREOF” (JUBILANT BIOSYS LIMITED, priority 2019, published 2023).
Counter-ions that a name gives are not always drawn.

Tests used:
Assay type in all cases: cell-based
[1] = target: HER2 (A775_G776insYVMA) expressing Ba/F3 stable cell line (Homo sapiens, UniProt P04626, DUP772-775, cells depend on it); assay: Cellular proliferation (Alamar Blue) assay, HER2 YVMA Ba/F3; conditions: HER2 A775_G776insYVMA Ba/F3, 72 hr, read-out: YVMA IC50
Chain of HER2 (A775_G776insYVMA) expressing Ba/F3 stable cell line (P04626 with tags, fused parts or gaps DUP772-775): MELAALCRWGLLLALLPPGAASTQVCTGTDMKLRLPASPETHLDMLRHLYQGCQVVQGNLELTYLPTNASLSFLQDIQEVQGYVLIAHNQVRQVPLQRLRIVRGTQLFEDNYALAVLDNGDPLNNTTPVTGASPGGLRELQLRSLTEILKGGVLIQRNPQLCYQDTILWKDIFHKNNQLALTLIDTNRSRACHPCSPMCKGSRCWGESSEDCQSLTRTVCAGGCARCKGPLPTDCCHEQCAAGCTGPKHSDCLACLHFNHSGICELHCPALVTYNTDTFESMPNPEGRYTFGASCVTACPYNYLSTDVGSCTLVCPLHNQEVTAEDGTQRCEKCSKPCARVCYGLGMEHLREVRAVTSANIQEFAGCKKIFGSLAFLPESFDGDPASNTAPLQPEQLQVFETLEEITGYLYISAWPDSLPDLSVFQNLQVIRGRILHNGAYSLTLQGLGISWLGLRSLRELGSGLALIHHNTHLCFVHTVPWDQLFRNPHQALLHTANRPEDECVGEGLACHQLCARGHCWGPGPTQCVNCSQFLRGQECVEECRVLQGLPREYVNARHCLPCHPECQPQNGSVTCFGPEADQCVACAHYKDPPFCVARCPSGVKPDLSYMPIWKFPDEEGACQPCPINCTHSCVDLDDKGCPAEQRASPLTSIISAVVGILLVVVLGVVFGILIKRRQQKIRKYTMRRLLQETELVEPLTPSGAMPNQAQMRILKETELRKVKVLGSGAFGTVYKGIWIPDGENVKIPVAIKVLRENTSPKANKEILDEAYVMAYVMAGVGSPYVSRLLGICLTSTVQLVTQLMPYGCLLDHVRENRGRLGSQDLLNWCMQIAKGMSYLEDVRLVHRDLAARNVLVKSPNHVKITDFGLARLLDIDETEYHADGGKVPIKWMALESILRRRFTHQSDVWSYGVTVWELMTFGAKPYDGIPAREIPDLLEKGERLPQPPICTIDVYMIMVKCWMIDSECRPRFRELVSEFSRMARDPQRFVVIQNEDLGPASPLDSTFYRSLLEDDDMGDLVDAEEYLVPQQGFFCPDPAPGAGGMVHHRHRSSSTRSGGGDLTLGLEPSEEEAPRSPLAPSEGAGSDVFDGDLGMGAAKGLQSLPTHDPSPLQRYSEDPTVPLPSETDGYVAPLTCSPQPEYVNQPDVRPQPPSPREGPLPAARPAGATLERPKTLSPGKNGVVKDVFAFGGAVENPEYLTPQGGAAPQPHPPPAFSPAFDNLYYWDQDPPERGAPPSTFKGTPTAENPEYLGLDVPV
Procedure: Example 3: Cellular Proliferation (Alamar Blue) Assays
• 1. EGFR(D770_N771insSVD) expressing Ba/F3 stable cell line • 2. EGFR (A767_dupASV) expressing Ba/F3 stable cell line • 3. A431 cells • 4. BTER2 (A775_G776insYVMA) expressing Ba/F3 stable cell line • 5. BTER2 (WT) expressing Ba/F3 stable cell line • 6. BT-474 cells
• 1. Seed cells at 5000 for A431 and 15,000 cells for Ba/F3 in 100 μL/well in complete media (for A431: DMEM with 10% FBS and for Ba/F3 cells: RPMI with 10% FBS) in 96-well tissue culture plate. Leave outer wells without cells for background measurements. Incubate at 37 degree Celsius in 5% CO2 humidified incubator for 16-18 hours. • 2. Add 0.025 ml of 5× concentration compound dilution or DMSO control. Final compound concentration range is 10-0.0005 μM prepared in 3-fold serial dilutions. Incubate for 72 hr at 37 degree Celsius in […] humidified incubator. • 3. Add 0.0125 mL Alamar Blue™ reagent to each well with multi-channel pipette and tap gently on each side of the plate to mix. Incubate for 3 hours at 37 degree Celsius in […] humidified incubator. • 4. Read plates on fluorescence reader (Tecan Spark Control, Device: Spark, Serial #: 1801006040) at 540 nm excitation, 590 nm emission wavelength. • 5. Data analysis was performed using XLfit 5.5.0.5.

[2] = target: EGFR(D770_N771insSVD) expressing Ba/F3 stable cell line (Homo sapiens, UniProt P00533, DUP768-770, cells depend on it); assay: Cellular proliferation (Alamar Blue) assay, EGFR D770_N771insSVD Ba/F3; conditions: EGFR D770_N771insSVD Ba/F3, 72 hr, read-out: D770 IC50
Chain of EGFR(D770_N771insSVD) expressing Ba/F3 stable cell line (P00533 with tags, fused parts or gaps DUP768-770): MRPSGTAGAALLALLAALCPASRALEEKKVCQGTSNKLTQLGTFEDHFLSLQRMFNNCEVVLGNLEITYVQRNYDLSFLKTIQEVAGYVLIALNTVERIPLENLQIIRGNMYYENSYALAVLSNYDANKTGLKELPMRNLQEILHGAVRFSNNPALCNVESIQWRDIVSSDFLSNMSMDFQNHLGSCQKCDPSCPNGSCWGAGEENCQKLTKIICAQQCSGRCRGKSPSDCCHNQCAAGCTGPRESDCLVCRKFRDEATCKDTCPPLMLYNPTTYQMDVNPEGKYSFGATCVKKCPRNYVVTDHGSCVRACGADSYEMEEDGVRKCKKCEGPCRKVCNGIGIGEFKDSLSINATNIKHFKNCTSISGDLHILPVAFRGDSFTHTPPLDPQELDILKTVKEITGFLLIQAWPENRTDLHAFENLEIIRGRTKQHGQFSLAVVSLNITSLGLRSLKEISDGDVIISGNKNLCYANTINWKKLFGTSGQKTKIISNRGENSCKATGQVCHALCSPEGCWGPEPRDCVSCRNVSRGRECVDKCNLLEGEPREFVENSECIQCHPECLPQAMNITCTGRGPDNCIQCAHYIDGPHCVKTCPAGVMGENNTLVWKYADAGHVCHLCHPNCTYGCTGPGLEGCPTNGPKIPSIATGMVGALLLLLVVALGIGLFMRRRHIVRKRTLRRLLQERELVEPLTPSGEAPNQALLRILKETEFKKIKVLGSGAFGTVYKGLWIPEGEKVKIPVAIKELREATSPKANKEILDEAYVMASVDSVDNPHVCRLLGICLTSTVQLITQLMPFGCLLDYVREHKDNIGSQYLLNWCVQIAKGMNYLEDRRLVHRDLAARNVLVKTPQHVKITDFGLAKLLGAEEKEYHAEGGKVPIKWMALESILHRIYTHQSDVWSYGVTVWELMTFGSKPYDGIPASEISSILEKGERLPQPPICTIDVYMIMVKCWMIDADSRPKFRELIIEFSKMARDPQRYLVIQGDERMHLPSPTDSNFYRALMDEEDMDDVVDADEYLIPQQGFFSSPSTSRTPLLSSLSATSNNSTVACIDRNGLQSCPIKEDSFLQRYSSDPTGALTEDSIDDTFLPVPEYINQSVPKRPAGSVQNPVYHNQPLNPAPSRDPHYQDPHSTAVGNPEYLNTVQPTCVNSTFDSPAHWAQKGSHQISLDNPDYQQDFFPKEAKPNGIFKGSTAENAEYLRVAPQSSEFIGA
Outline: (§1)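 Viability is measured by Alamar Blue conversion over 3 h, read as fluorescence at 540/590 nm. Cells are treated for 72 h with compound spanning 10–0.0005 μM final in 3-fold dilutions, after overnight attachment; Ba/F3 cells go in at 15,000 per well in RPMI with 10% FBS.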

[3] = target: EGFR (A767_dupASV) expressing Ba/F3 stable cell line (Homo sapiens, UniProt P00533, DUP767-769, cells depend on it); assay: Cellular proliferation (Alamar Blue) assay, EGFR A767_dupASV Ba/F3; conditions: EGFR A767_dupASV Ba/F3, 72 hr, read-out: A767 IC50
Chain of EGFR (A767_dupASV) expressing Ba/F3 stable cell line (P00533 with tags, fused parts or gaps DUP767-769): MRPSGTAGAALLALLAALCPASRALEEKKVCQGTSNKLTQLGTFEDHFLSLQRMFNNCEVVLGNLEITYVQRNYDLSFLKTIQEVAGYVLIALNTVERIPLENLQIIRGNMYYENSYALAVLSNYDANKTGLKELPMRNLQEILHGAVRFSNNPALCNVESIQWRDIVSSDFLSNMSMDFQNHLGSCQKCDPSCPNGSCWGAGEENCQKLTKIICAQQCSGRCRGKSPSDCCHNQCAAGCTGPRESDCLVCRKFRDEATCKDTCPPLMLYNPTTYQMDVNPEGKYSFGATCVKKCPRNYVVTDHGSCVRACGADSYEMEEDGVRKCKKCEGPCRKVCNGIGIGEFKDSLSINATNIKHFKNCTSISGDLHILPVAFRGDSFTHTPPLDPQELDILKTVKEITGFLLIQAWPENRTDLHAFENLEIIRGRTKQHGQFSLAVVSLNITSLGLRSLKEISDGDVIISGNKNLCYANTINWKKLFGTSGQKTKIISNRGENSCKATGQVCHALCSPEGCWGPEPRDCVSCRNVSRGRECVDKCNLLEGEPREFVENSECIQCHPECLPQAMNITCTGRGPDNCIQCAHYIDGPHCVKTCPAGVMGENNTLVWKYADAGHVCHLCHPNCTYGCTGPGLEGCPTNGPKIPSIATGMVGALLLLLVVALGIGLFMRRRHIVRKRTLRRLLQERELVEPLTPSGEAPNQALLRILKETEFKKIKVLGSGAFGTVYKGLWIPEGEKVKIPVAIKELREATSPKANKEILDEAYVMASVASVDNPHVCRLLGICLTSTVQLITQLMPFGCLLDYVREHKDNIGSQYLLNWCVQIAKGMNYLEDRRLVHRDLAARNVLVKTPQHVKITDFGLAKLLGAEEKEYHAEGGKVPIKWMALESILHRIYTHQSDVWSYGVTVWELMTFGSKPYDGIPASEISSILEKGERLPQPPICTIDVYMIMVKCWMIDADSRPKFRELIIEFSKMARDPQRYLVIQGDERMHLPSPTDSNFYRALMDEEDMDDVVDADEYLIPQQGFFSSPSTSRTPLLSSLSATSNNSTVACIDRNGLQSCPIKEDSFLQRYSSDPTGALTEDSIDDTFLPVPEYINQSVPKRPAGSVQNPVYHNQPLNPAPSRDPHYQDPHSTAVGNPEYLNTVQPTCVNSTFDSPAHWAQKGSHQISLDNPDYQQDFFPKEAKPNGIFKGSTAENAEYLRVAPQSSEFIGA
Outline: as §1

A431 cells = assay: Cellular proliferation (Alamar Blue) assay, A431; conditions: Homo sapiens, A-431; A431 cells, 72 hr, Alamar Blue; read-out: A431 IC50
Outline: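 Seventy-two-hour growth assay with 3-fold compound titration (final 10–0.0005 μM) and Alamar Blue fluorescence end point, ex 540/em 590 nm.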

Compound | GI50 [1] [nM] | GI50 [2] [nM] | GI50 [3] [nM] | IC50 (A431 cells) [nM]
C=CC(=O)Nc1cccc(N2C(=O)N(c3ccccc3)Cc3cnc(Nc4ccc(N5CCC(N(C)C)CC5)nc4)nc32)c1 [Compound 112, N-(3-(7-((6-(4-(dimethylamino)piperidin-1-yl)pyridin-3-yl)amino)-2-oxo-3-phenyl-3,4-dihydropyrimido[4,5-d]pyrimidin-1(2H)-yl)phenyl)acrylamide] | 354 | 295 | 229 | ≥ 10000
CN(C)C/C=C/C(=O)Nc1cccc(N2C(=O)N(c3ccccc3)Cc3cnc(Nc4cccnc4F)nc32)c1 [Compound 114, (E)-4-(dimethylamino)-N-(3-(7-((2-fluoropyridin-3-yl)amino)-2-oxo-3-phenyl-3,4-dihydropyrimido[4,5-d]pyrimidin-1(2H)-yl)phenyl)but-2-enamide] | 1150 | 1090 | 164 | ≥ 10000
C/C=C/C(=O)Nc1cccc(N2C(=O)N(c3ccccc3)Cc3cnc(Nc4cn(C)nc4Cl)nc32)c1 [Compound 120, (E)-N-(3-(7-((3-chloro-1-methyl-1H-pyrazol-4-yl)amino)-2-oxo-3-phenyl-3,4-dihydropyrimido[4,5-d]pyrimidin-1(2H)-yl)phenyl)but-2-enamide] | 158 | 183 | 107 | ≥ 10000
C=CC(=O)Nc1cccc(N2C(=O)N(c3ccccc3)Cc3cnc(Nc4cn(C(C)(C)C#N)nc4Cl)nc32)c1 [Compound 123, N-(3-(7-((3-chloro-1-(2-cyanopropan-2-yl)-1H-pyrazol-4-yl)amino)-2-oxo-3-phenyl-3,4-dihydropyrimido[4,5-d]pyrimidin-1(2H)-yl)phenyl)acrylamide trifluoroacetate salt] | 319 | 300 | 176 | ≥ 10000
CC#CC(=O)Nc1cccc(N2C(=O)N(c3ccccc3)Cc3cnc(Nc4cn(C)nc4Cl)nc32)c1 [Compound 125, N-(3-(7-((3-chloro-1-methyl-1H-pyrazol-4-yl)amino)-2-oxo-3-phenyl-3,4-dihydropyrimido[4,5-d]pyrimidin-1(2H)-yl)phenyl)but-2-ynamide] | 445 | 338 | 269 | ≥ 10000
C=CC(=O)Nc1ccc(F)c(N2C(=O)N(c3ccccc3)Cc3cnc(Nc4cn(C)nc4Cl)nc32)c1 [Compound 128, N-(3-(7-((3-chloro-1-methyl-1H-pyrazol-4-yl)amino)-2-oxo-3-phenyl-3,4-dihydropyrimido[4,5-d]pyrimidin-1(2H)-yl)-4-fluorophenyl)acrylamide trifluoroacetate salt] | 24 | 12 | 11 | ≥ 10000
C=CC(=O)Nc1cccc(N2C(=O)N(c3ccccc3)Cc3cnc(Nc4cn(C5CCC(O)CC5)nc4Cl)nc32)c1 (stereo not drawn) [Compound 129, N-(3-(7-((3-chloro-1-(4-hydroxycyclohexyl)-1H-pyrazol-4-yl)amino)-2-oxo-3-phenyl-3,4-dihydropyrimido[4,5-d]pyrimidin-1(2H)-yl)phenyl)acrylamide trifluoroacetate salt] | 312 | 333 | 157 | ≥ 10000
O=C(/C=C/CF)Nc1cccc(N2C(=O)N(c3ccccc3)Cc3cnc(Nc4cccnc4F)nc32)c1 [Compound 135, (E)-4-fluoro-N-(3-(7-((2-fluoropyridin-3-yl)amino)-2-oxo-3-phenyl-3,4-dihydropyrimido[4,5-d]pyrimidin-1(2H)-yl)phenyl)but-2-enamide] | 294 | 120 | 43 | > 10000

Further compounds by falling GI50 [1], results first:

GI50 [1] [nM] | GI50 [2] [nM] | GI50 [3] [nM] | IC50 (A431 cells) [nM] | Compound
1480 | 4980 | 2760 | ≥ 10000 | CN(C)C1CCN(C/C=C/C(=O)Nc2cccc(N3C(=O)N(c4ccccc4)Cc4cnc(Nc5cn(C)nc5Cl)nc43)c2)CC1 [Compound 124, (E)-N-(3-(7-((3-chloro-1-methyl-1H-pyrazol-4-yl)amino)-2-oxo-3-phenyl-3,4-dihydropyrimido[4,5-d]pyrimidin-1(2H)-yl)phenyl)-4-(4-(dimethylamino)piperidin-1-yl)but-2-enamide]
1130 | 765 | 373 | 3510 | C=CC(=O)Nc1ccc(N2C(=O)N(c3ccccc3)Cc3cnc(Nc4cn(C)nc4Cl)nc32)cc1 [Compound 131, N-(4-(7-((3-chloro-1-methyl-1H-pyrazol-4-yl)amino)-2-oxo-3-phenyl-3,4-dihydropyrimido[4,5-d]pyrimidin-1(2H)-yl)phenyl)acrylamide]
883 | ≥ 10000 | 8600 | ≥ 10000 | C=C(C)C(=O)Nc1cccc(N2C(=O)N(c3ccccc3)Cc3cnc(Nc4cn(C)nc4Cl)nc32)c1 [Compound 121, N-(3-(7-((3-chloro-1-methyl-1H-pyrazol-4-yl)amino)-2-oxo-3-phenyl-3,4-dihydropyrimido[4,5-d]pyrimidin-1(2H)-yl)phenyl)methacrylamide]
188 | 28 | 8 | ≥ 10000 | C=CC(=O)Nc1cccc(N2C(=O)N(c3ccccc3)Cc3cnc(Nc4cccnc4F)nc32)c1 [Compound 115, N-(3-(7-((2-fluoropyridin-3-yl)amino)-2-oxo-3-phenyl-3,4-dihydropyrimido[4,5-d]pyrimidin-1(2H)-yl)phenyl)acrylamide]
144 | 140 | 98 | ≥ 10000 | COC/C=C/C(=O)Nc1cccc(N2C(=O)N(c3ccccc3)Cc3cnc(Nc4cn(C)nc4Cl)nc32)c1 [Compound 119, (E)-N-(3-(7-((3-chloro-1-methyl-1H-pyrazol-4-yl)amino)-2-oxo-3-phenyl-3,4-dihydropyrimido[4,5-d]pyrimidin-1(2H)-yl)phenyl)-4-methoxybut-2-enamide]
132 | 284 | 101 | ≥ 10000 | Cn1cc(Nc2ncc3c(n2)N(c2cccc(NC(=O)/C=C/CN4CCOCC4)c2)C(=O)N(c2ccccc2)C3)c(Cl)n1 [Compound 122, (E)-N-(3-(7-((3-chloro-1-methyl-1H-pyrazol-4-yl)amino)-2-oxo-3-phenyl-3,4-dihydropyrimido[4,5-d]pyrimidin-1(2H)-yl)phenyl)-4-morpholinobut-2-enamide]
103 | 110 | 32 | ≥ 10000 | C=CC(=O)Nc1cccc(N2C(=O)N(c3ccccc3)Cc3cnc(Nc4cccc5c4CCN5C4CCN(C)CC4)nc32)c1 [Compound 118, N-(3-(7-((1-(1-methylpiperidin-4-yl)indolin-4-yl)amino)-2-oxo-3-phenyl-3,4-dihydropyrimido[4,5-d]pyrimidin-1(2H)-yl)phenyl)acrylamide]
75 | 50 | 35 | ≥ 10000 | Cn1cc(Nc2ncc3c(n2)N(c2cccc(NC(=O)/C=C/CF)c2)C(=O)N(c2ccccc2)C3)c(Cl)n1 [Compound 117, (E)-N-(3-(7-((3-chloro-1-methyl-1H-pyrazol-4-yl)amino)-2-oxo-3-phenyl-3,4-dihydropyrimido[4,5-d]pyrimidin-1(2H)-yl)phenyl)-4-fluorobut-2-enamide]
68 | 17 | 4 | ≥ 10000 | C=CC(=O)Nc1cccc(N2C(=O)N(c3ccccc3)Cc3cnc(Nc4cn(C)nc4F)nc32)c1 [Compound 113, N-(3-(7-((3-fluoro-1-methyl-1H-pyrazol-4-yl)amino)-2-oxo-3-phenyl-3,4-dihydropyrimido[4,5-d]pyrimidin-1(2H)-yl)phenyl)acrylamide]
24 | 7 | 1 | ≥ 10000 | C=CC(=O)Nc1cccc(N2C(=O)N(c3ccccc3)Cc3cnc(Nc4cn(C)nc4Cl)nc32)c1 [Compound 116, N-(3-(7-((3-chloro-1-methyl-1H-pyrazol-4-yl)amino)-2-oxo-3-phenyl-3,4-dihydropyrimido[4,5-d]pyrimidin-1(2H)-yl)phenyl)acrylamide]
